Legend:
[1] = biological target: T1, 14-3-3σ/C-RAF (Homo sapiens, UniProt P31947); assay: Fluorescence anisotropy compound titration, FAM-labeled C-RAF peptide; format: binding; conditions: 10 nM C-RAF-FAM labeled peptide, 5 µM 14-3-3σ, overnight incubation; read-out: EC50 value C-RAF (FA compound titration)
T1 construct: The 14-3-3 σ isoform (full-length for mass spectrometry and fluorescence anisotropy assays, ΔC for crystallography); made in house; host or cells: E. coli Rosetta 2(DE3)pLysS, pPROEX HTb vector
T1 sequence (P31947 1-248): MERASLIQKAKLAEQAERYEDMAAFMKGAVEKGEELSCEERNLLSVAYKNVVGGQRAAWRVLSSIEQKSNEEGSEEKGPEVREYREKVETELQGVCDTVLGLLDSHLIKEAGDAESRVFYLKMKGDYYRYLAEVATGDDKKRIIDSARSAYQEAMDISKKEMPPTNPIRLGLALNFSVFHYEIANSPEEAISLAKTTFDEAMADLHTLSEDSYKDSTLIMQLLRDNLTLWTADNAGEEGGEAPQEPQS
In short: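 Peptide-binding stabilization was followed by fluorescence anisotropy. A mix of 5 µM 14-3-3σ and 10 nM FAM-labeled C-RAF peptide received 2-fold serial dilutions of compound starting at 500 or 1000 µM. The buffer was 10 mM HEPES pH 7.5, 150 mM NaCl, 0.1% Tween20 and 1 mg/mL BSA. Anisotropy was read after incubating overnight at room temperature. A four-parameter logistic fit in GraphPad Prism 7 gave EC50 values averaged from three experiments.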

[2] = biological target: T2, 14-3-3σ/ERα (Homo sapiens, UniProt P03372+P31947); assay: Fluorescence anisotropy compound titration, FAM-labeled ERα peptide; format: binding; conditions: 10 nM ERα-FAM labeled peptide, 1 µM 14-3-3σ, overnight incubation (24 h); read-out: EC50 value ERα (FA compound titration)
T2 construct: The 14-3-3 σ isoform (full-length for mass spectrometry and fluorescence anisotropy assays, ΔC for crystallography); made in house; host or cells: E. coli Rosetta 2(DE3)pLysS, pPROEX HTb vector
In short: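 Compounds, serially diluted 2-fold from a top concentration of 500 or 1000 µM, were added to 10 nM FAM-labeled ERα peptide plus 1 µM 14-3-3σ in 10 mM HEPES pH 7.5, 150 mM NaCl, 0.1% Tween20, 1 mg/mL BSA (1% DMSO). Anisotropy was measured after overnight room-temperature incubation, and EC50 values were derived by four-parameter logistic fitting averaged over three independent experiments.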

[3] = biological target: T3, 14-3-3σ (Homo sapiens, UniProt P31947); assay: Mass spectrometry dose response, compound binding to 14-3-3σ in the absence of peptide (apo); conditions: 100 nM compound, 100 nM 14-3-3σ
T3 construct: The 14-3-3 σ isoform (full-length for mass spectrometry and fluorescence anisotropy assays, ΔC for crystallography); made in house; host or cells: E. coli Rosetta 2(DE3)pLysS, pPROEX HTb vector
T3 sequence (P31947 1-248): T1 sequence (P31947 1-248)
In short: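 This apo mass spectrometry assay tracked adduct formation between compounds and the native cysteine of 14-3-3σ in the absence of any peptide. Wells held 100 nM protein in 10 mM TRIS pH 8.0 with a 3-fold compound dilution series, final volume 50 μl. Injections of 6 μl were taken at 1h, 8h, 16h and 24h, and dose responses were fitted with a four-parameter variable-slope model in GraphPad Prism.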

[4] = biological target: T2, 14-3-3σ/ERα; assay: Mass spectrometry dose response, compound binding to 14-3-3σ in the presence of ERα phosphopeptide; conditions: 100 nM compound, 100 nM 14-3-3σ, ERα-peptide 2 µM
In short: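 Covalent labeling of Cys38 on 14-3-3σ was tracked by LC-MS on a Waters Acquity UPLC/Xevo G2-XS Q-Tof, with samples desalted on a Protein BEH-C4 column. Full-length wild type 14-3-3σ (100 nM) plus ERα phosphopeptide was mixed with compound in 10 mM TRIS, pH 8.0, at 50 μl per well. Percent bound was measured at several time points.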

[5] = biological target: T2, 14-3-3σ/ERα; assay: Fluorescence anisotropy protein titration, FAM-labeled ERα peptide; format: binding; conditions: 10 nM FAM-ERα peptide; for X Fold stabilization (100 µM compound) of 14-3-3σ/ERα: versus DMSO reference; for Kd: 100 µM compound, overnight incubation
Protocol: To evaluate compound-mediated stabilization of the 14-3-3σ/ERα complex directly, FA protein titrations were performed at a saturating concentration of compound. FA protein titrations allowed the quantification of the cooperative effect by comparing the apparent dissociation constants (appKD) of the binary and ternary complexes. 14-3-3σ was titrated into 10 nM FAM-labeled ERα peptide in the presence of DMSO or 100 μM of the compounds (Table S4). […]
diluted in buffer (10 mM HEPES, pH 7.5, 150 mM NaCl, 0.1% Tween20, 1 mg/mL Bovine Serum Albumin (BSA; Sigma-Aldrich). Final DMSO in the assay was always 1%. […]
Protein titrations were made by titrating 14-3-3σ in a 2-fold dilution series (starting at 300 µM) to a mix of fluorescein-labeled peptide (10 nM) and DMSO or compound (100 µM). Fluorescence anisotropy measurements were performed after overnight incubation at room temperature. […]
Wells containing only FAM-peptide were used to set as G-factor at 35 mP. Data reported are at endpoint. EC50 and apparent Kd values were obtained from fitting the data with a four-parameter logistic model (4PL) in GraphPad Prism 7 for Windows. Data was obtained and averaged based on either three (compound titrations) or two (protein titrations) independent experiments.

[6] = biological target: T1, 14-3-3σ/C-RAF; assay: Mass spectrometry dose response, compound binding to 14-3-3σ in the presence of C-RAF phosphopeptide; conditions: 100 nM compound, 100 nM 14-3-3σ, C-RAF peptide 18 µM
In short: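 Compound stocks of 50 mM in DMSO were serially diluted 3-fold to give 19-point dose responses topping out at 1 mM, then 1000 nl was transferred into 50 μl wells holding 100 nM full-length wild type 14-3-3σ plus C-RAF phosphopeptide. Mass spectrometry measured percent compound bound to Cys38, with curves fitted in GraphPad Prism using a four-parameter variable-slope model.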

Row | SMILES | EC50 [1] [µM] | EC50 [2] [µM] | Percentage (%) bound of compound to 14-3-3σ, APO 1h [3] [%] | Percentage (%) bound of compound to 14-3-3σ, APO 8h [3] [%] | Percentage (%) bound of compound to 14-3-3σ, APO 16h [3] [%] | Percentage (%) bound of compound to 14-3-3σ, APO 24h [3] [%] | Percentage (%) bound of compound to 14-3-3σ, ERα 1h [4] [%] | Percentage (%) bound of compound to 14-3-3σ, ERα 8h [4] [%] | Percentage (%) bound of compound to 14-3-3σ, ERα 16h [4] [%] | Percentage (%) bound of compound to 14-3-3σ, ERα 24h [4] [%] | X Fold stabilization (100 µM compound) of 14-3-3σ/ERα [5] [fold] | Kd [5] [µM] | Percentage (%) bound of compound to 14-3-3σ, CRAF 1h [6] [%] | Percentage (%) bound of compound to 14-3-3σ, CRAF 8h [6] [%] | Percentage (%) bound of compound to 14-3-3σ, CRAF 24h ([6]; 24h) [%] | Percentage (%) bound of compound to 14-3-3σ, CRAF 24h ([6]; head prints 24h) [%]
1 | CC1CC(Nc2ccc(Cl)cc2)(C(=O)N2CCC(CNC(=O)CCl)CC2)CC(C)O1 (stereo not drawn) [compound 178] | 86 ± 11 | 12 ± 1 | 0.9 | 1.7 | 2.4 | 2.5 | 24.6 | 36.8 | 77.5 | 96.4 | 15 | 0.094 | 0 | 0.5 | 5.7 | 2.0
2 | O=C(CCl)N1CCC2(CC1)CC(NC(=O)C1(Nc3ccc(Cl)cc3)CCOCC1)C2 [compound 163] | 57 ± 5 | 4 ± 1 | 5.6 | 11.2 | 22.6 | 40.5 | 42.3 | 80.4 | 96.6 | 99.8 | 18 | 0.077 | 6.0 | 13.4 | 49.6 | 27.1
3 | O=C(CCl)NCCCC1CCN(C(=O)C2(Nc3ccc(Cl)cc3)CCOCC2)CC1 [compound 149] | – | 4 ± 0.4 | 0.6 | 0.8 | 14.2 | 17.7 | 7.6 | 16.2 | 37.7 | 86.7 | 55 | 0.027 | 0 | 1.0 | 23.3 | 3.4
4 | O=C(CCl)N1CCC2(CC1)CCN(C(=O)C1(Nc3ccc(Cl)cc3)CCOCC1)CC2 [compound 170] | 58 ± 11 | 8 ± 1 | 1.0 | 1.8 | 3.4 | 5.3 | 38.2 | 68.1 | 86.2 | 94.0 | 12 | 0.119 | 3.6 | 8.0 | 19.7 | 12.1

Reference: publication PMC10515640, “Structure-Based Optimization of Covalent, Small-Molecule Stabilizers of the 14-3-3σ/ERα Protein–Protein Interaction from Nonselective Fragments” (Journal of the American Chemical Society, 2023)
